Measured values reported in PubChem BioAssay (NCI).
Values joined by “and” are separate entries in the source; they are usually repeats but may differ in a detail not shown here. Equal values may be shown once.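 Compound exposure: 48 hours, 5 concentrations, 96-well plates. GI50 is the concentration that inhibits growth by half. Definition used: TGI = concentration required for complete inhibition of growth.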

Tests used:
Experiment in all cases: growth of human tumour cells (NCI), 48 h
[1] = tested on: DU-145 prostate
[2] = tested on: MDA-MB-435
[3] = tested on: IGROV1 ovarian
[4] = tested on: SK-OV-3 ovarian
[5] = tested on: U251 CNS
[6] = tested on: SF-295 CNS
[7] = tested on: K-562 leukemia
[8] = tested on: NCI/ADR-RES ovarian
[9] = tested on: MCF7 breast
[10] = tested on: T-47D breast

| SMILES | TGI [1] [µM] | TGI [2] [µM] | TGI [3] | TGI [4] [µM] | TGI [5] | TGI [6] | TGI [7] | TGI [8] | TGI [9] | TGI [10] [µM] | GI50 [3] [µM] | GI50 [5] [µM] | GI50 [6] [µM] | GI50 [7] [nM] | GI50 [8] [µM] | GI50 [9] [nM] |
| --- | --- | --- | --- | --- | --- | --- | --- | --- | --- | --- | --- | --- | --- | --- | --- | --- |
| Cc1ccc(C(=O)C2=CN=C3C(=O)N(c4ccccc4)N(C)C3(C)C2=N)cc1 (stereo unspecified) | > 100 | > 100 | > 100 µM | > 100 | > 100 µM | > 100 µM | > 100 µM | > 100 µM | > 100 µM | – | – | – | – | – | – | – |
| CCOC(=O)c1nc2cc(C(F)(F)F)ccc2nc1Nc1ccc(F)cc1 | > 100 | > 100 | > 100 µM | > 100 | > 100 µM | > 100 µM | 39.9 µM | > 100 µM | > 100 µM | > 100 | – | – | – | – | – | – |
| COC(=O)[C@@]12OC[C@]34C([C@@H](O)C1O)[C@@]1(C)CC(=O)C(O)=C(C)C1C[C@H]3OC(=O)[C@H](OC(=O)/C=C(/c1ccccc1)C(F)(F)F)[C@H]42 (stereo partly specified) | – | – | 11.5 µM | > 25 | > 25 µM | 12.7 µM | > 25 µM | – | – | – | – | – | – | – | – | – |
| CCOC(=O)C1C[C@H]2CO[C@H](c3ccccc3)N2C1=O (stereo partly specified) | > 100 | > 100 | > 100 µM | – | > 100 µM | > 100 µM | > 100 µM | > 100 µM | > 100 µM | > 100 | – | – | – | – | – | – |
| C=CCCC(On1c(-c2ccc(Cl)cc2)csc1=S)c1ccccc1 (stereo unspecified) | > 100 | > 100 | > 100 µM | – | > 100 µM | > 100 µM | > 100 µM | > 100 µM | > 100 µM | > 100 | – | – | – | – | – | – |
| CC1(C)OCC(COC(=O)NCn2cc(-c3ccccc3)nn2)O1 (stereo unspecified) | > 100 | – | > 100 µM | – | > 100 µM | > 100 µM | > 100 µM | > 100 µM | > 100 µM | – | – | – | – | – | – | – |
| CCOC(=O)Cn1nnc2cc(Nc3nc4ccccc4nc3C(=O)OCC)ccc21 | > 100 | > 100 | > 100 µM | > 100 | > 100 µM | > 100 µM | > 100 µM | > 100 µM | > 100 µM | > 100 | – | – | – | – | – | – |
| NC(=O)c1ncn2c(=O)n(CCl)nnc12 | > 100 | > 100 | > 100 µM | > 100 | > 100 µM | > 100 µM | > 100 µM | > 100 µM | > 100 µM | > 100 | – | – | – | – | – | – |
| COc1c(-c2cccs2)oc2c(CC(=O)O)cccc2c1=O | > 100 | > 100 | > 100 µM | > 100 | > 100 µM | > 100 µM | > 100 µM | – | > 100 µM | > 100 | – | – | – | – | – | – |
| C=C1C(=O)O[C@@H]2OC3(C)CCC4C(C)CCC1C42OO3 (stereo partly specified) | – | – | 16.7 µM and 12.7 µM | 34.7 | 21.2 µM and 16.8 µM | 25.1 µM and 13.4 µM | 6.76 µM and 18.1 µM | 18.6 µM and 6.51 µM | 11.5 µM and 15 µM | – | 4.71 | 8.18 | 11.7 | 2320 | 4.17 | 2200 |
| CCCCC1(N=[N+]=[N-])C(=O)C2C=CC=C3c4ccccc4N(C1=O)C32 (stereo unspecified) | > 100 | > 31.6 | > 31.6 µM | > 31.6 | > 31.6 µM | > 31.6 µM | > 31.6 µM | > 31.6 µM | 28.1 µM | > 31.6 | – | – | – | – | – | – |
